The compounds below were run against Aurora B/INCENP (Homo sapiens, UniProt Q96GD4) (assay: Determination of inhibition of AIK: Aurora B/INCENP Direct Fluorescence Polarization (IMAP) assay). Conditions: 10 uM ATP, 0.8 nM Aurora B/INCENP, 45 min at room temperature; read-out: IC50 of Exemplified Compounds Against AIK B.
Type: biochemical
Description: Detection of the reaction product is performed by addition of Progressive IMAP binding reagent (Molecular Devices). Reaction product may be determined quantitatively by FP using an Analyst HT plate reader (Molecular Devices) with an excitation wavelength at 485 nm and emission at 530 nm and using a Fluorescein 505 dichroic mirror.
The assay reaction may be initiated as follows: 2 ul of (3×) 300 nM Fl-Peptide/30 uM ATP was added to each well of the plate, followed by the addition of 2 ul of (3×) inhibitor (2 fold serial dilutions for 11 data points for each inhibitor) containing 15% DMSO. Two microliters of (3×) 2.4 nM AuroraB/INCENP solution may be added to initiate the reaction (final enzyme concentration was 0.8 nM for Aurora B/INCENP). The reaction mixture may then be incubated at room temperature for 45 min, and quenched and developed by addition of 20 ul of 1 to 400 diluted Progressive IMAP binding reagent in 1× proprietary Progressive IMAP binding buffer A. Fluorescence polarization readings of the resulting reaction mixtures may be measured after a 60-minute incubation at room temperature.
IC50 values may be calculated by non-linear curve fitting of the compound concentrations and fluorescent polarization values to the standard IC50 equation.

Aurora B/INCENP, sequence (Q96GD4 whole entry): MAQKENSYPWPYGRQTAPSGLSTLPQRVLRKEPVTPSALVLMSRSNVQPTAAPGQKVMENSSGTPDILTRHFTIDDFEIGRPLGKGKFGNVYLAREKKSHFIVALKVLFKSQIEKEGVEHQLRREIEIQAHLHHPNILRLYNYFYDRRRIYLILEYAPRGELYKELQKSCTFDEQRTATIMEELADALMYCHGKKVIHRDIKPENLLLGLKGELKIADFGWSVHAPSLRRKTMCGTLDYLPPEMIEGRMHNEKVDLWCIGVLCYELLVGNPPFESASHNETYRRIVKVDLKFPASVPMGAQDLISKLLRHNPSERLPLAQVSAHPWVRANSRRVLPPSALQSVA
Aurora B/INCENP, sequence (Q9NQS7 whole entry partner): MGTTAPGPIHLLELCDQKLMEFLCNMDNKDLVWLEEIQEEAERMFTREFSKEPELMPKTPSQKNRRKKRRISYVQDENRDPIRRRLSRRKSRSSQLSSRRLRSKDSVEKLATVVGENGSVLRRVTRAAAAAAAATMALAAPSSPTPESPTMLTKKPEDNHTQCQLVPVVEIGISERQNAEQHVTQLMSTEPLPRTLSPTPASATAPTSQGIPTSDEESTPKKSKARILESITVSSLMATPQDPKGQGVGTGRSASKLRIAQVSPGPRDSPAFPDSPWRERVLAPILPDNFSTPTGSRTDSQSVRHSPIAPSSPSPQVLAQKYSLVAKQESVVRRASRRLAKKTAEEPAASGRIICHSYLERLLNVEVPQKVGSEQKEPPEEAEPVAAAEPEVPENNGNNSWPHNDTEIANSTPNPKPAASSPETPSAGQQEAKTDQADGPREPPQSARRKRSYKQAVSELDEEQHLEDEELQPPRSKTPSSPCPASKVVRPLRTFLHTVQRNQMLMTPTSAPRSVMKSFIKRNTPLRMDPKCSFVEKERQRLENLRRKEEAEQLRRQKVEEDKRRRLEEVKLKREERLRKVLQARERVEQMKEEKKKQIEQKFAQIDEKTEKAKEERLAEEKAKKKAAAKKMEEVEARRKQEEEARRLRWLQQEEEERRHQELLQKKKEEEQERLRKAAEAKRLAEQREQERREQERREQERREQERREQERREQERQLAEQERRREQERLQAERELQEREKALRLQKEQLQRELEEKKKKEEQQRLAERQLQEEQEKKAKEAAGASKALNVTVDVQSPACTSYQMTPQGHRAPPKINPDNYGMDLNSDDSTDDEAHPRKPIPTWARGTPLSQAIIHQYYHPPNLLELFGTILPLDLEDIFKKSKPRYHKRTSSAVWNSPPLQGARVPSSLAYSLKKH

SMILES	IC50 [nM]
c1ccc(-c2cccc3[nH]c4ncccc4c23)cc1 [Compound 5, 5-phenyl-9H-pyrido[2,3-b]indole]	≥ 11
CCS(=O)(=O)c1cccc(-c2ccc(C)c3[nH]c4ncc(C)cc4c23)c1 [Compound 18, 5-(3-(ethylsulfonyl)phenyl)-3,8-dimethyl-9H-pyrido[2,3-b]indole]	6 to 10
CCS(=O)(=O)c1cccc(-c2cnc(NCCCN(C)C)c3[nH]c4ncc(C)cc4c23)c1 [Compound 41, N′-[5-(3-Ethanesulfonyl-phenyl)-3-methyl-9H-dipyrido[2,3-b;4′,3′-d]pyrrol-8-yl]-N,N-dimethyl-propane-1,3-diamine]	6 to 10
CCOc1ncc(-c2cccc(S(=O)(=O)CC)c2)c2c1[nH]c1ncc(C)cc12 [Compound 51, 5-(3-Ethanesulfonyl-phenyl)-8-ethoxy-3-methyl-9H-dipyrido[2,3-b;4′,3′-d]pyrrole]	6 to 10
CCS(=O)(=O)c1cccc(-c2cnc(OCCCN(C)C)c3[nH]c4ncc(C)cc4c23)c1 [Compound 52, {3-[5-(3-Ethanesulfonyl-phenyl)-3-methyl-9H-dipyrido[2,3-b;4′,3′-d]pyrrol-8-yloxy]-propyl}-dimethyl-amine]	6 to 10
CCS(=O)(=O)c1cccc(-c2cnc(OCC3CCN(C)CC3)c3[nH]c4ncc(C)cc4c23)c1 [Compound 54, 5-(3-Ethanesulfonyl-phenyl)-3-methyl-8-(1-methyl-piperidin-4-ylmethoxy)-9H-dipyrido[2,3-b;4′,3′-d]pyrrole]	6 to 10
CCS(=O)(=O)c1cccc(-c2cc(C(=O)NC3CCN(C)CC3)c(C)c3[nH]c4ncc(C)cc4c23)c1 [Compound 88, 5-(3-(ethylsulfonyl)phenyl)-3,8-dimethyl-N-(1-methylpiperidin-4-yl)-9H-pyrido[2,3-b]indole-7-carboxamide]	6 to 10
CCN1CCC(NC(=O)c2cc(-c3cccc(S(=O)(=O)CC)c3)c3c([nH]c4ncc(C)cc43)c2C)CC1 [Compound 105, N-(1-ethylpiperidin-4-yl)-5-(3-(ethylsulfonyl)phenyl)-3,8-dimethyl-9H-pyrido[2,3-b]indole-7-carboxamide]	≥ 11
CCS(=O)(=O)c1cccc(-c2cc(C(=O)N[C@H]3CCCN(C)C3)c(C)c3[nH]c4ncc(C)cc4c23)c1 [Compound 117, (S)-5-(3-(ethylsulfonyl)phenyl)-3,8-dimethyl-N-(1-methylpiperidin-3-yl)-9H-pyrido[2,3-b]indole-7-carboxamide]	≥ 11
Cc1cnc2[nH]c3c(C)c(C(=O)NC4CCN(C)CC4)cc(-c4cccc(NC(=O)C5CC5)c4)c3c2c1 [Compound 120, 5-(3-(cyclopropanecarboxamido)phenyl)-3,8-dimethyl-N-(1-methyl-piperidin-4-yl)-9H-pyrido[2,3-b]indole-7-carboxamide]	6 to 10
CCS(=O)(=O)c1cccc(-c2cc(C(=O)NCCN(C)C)cc3[nH]c4ncc(C)cc4c23)c1 [Compound 142, 5-(3-Ethanesulfonyl-phenyl)-3-methyl-9H-pyrido[2,3-b]indole-7-carboxylic acid (2-dimethylamino-ethyl)-amide]	6 to 10
CCNS(=O)(=O)c1cccc(-c2cc(C(=O)NC3CCN(C)CC3)c(C)c3[nH]c4ncc(C)cc4c23)c1 [Compound 153]	≥ 11
CCOc1ccc(-c2cccc(S(=O)(=O)CC)c2)c2c1[nH]c1ncc(C)cc12 [Compound 171, 8-ethoxy-5-(3-(ethylsulfonyl)phenyl)-3-methyl-9H-pyrido[2,3-b]indole]	6 to 10
CCS(=O)(=O)c1cccc(-c2ccc(OCC(F)(F)F)c3[nH]c4ncc(C)cc4c23)c1 [Compound 173, 5-(3-(ethylsulfonyl)phenyl)-3-methyl-8-(2,2,2-trifluoroethoxy)-9H-pyrido[2,3-b]indole]	≥ 11
Cc1cnc2[nH]c3c(OCC4CCN(C)CC4)ccc(-c4cccc(C(=O)NC5CC5)c4)c3c2c1 [Compound 178, N-cyclopropyl-3-(3-methyl-8-((1-methylpiperidin-4-yl)methoxy)-9H-pyrido[2,3-b]indol-5-yl)benzamide]	≥ 11
Cc1cnc2[nH]c3c(OCC4CCN(C)CC4)ccc(-c4cccc(S(=O)(=O)C5CC5)c4)c3c2c1 [Compound 179, 5-(3-(cyclopropylsulfonyl)phenyl)-3-methyl-8-((1-methylpiperidin-4-yl)methoxy)-9H-pyrido[2,3-b]indole]	6 to 10
CCN(CCCOc1ccc(-c2cccc(S(=O)(=O)C3CC3)c2)c2c1[nH]c1ncc(C)cc12)CCOP(=O)(OC(C)(C)C)OC(C)(C)C [Compound 271, di-tert-butyl-2-((3-(5-(3-(cyclopropylsulfonyl)phenyl)-3-methyl-9H-pyrido[2,3-b]indol-8-yloxy)propyl)(ethyl)amino)ethyl phosphate]	≤ 5
CN1CCC(COc2ccc(-c3cccc(C(=O)NC4CC4)c3)c3c2[nH]c2ncc(Cl)cc23)CC1 [Compound 285, 3-(3-chloro-8-((1-methylpiperidin-4-yl)methoxy)-9H-pyrido[2,3-b]indol-5-yl)-N-cyclopropylbenzamide]	6 to 10
CN1CCC(COc2ccc(-c3cccc(S(=O)(=O)C4CC4)c3)c3c2[nH]c2ncc(Cl)cc23)CC1 [Compound 286, 3-chloro-5-(3-(cyclopropylsulfonyl)phenyl)-8-((1-methylpiperidin-4-yl)methoxy)-9H-pyrido[2,3-b]indole]	6 to 10
CCNS(=O)(=O)c1cccc(-c2ccc(OCCCN(C)C)c3[nH]c4ncc(C)cc4c23)c1 [Compound 295, 3-(8-(3-(dimethylamino)propoxy)-3-methyl-9H-pyrido[2,3-b]indol-5-yl)-N-ethylbenzenesulfonamide]	6 to 10

Other lines, results leading:

IC50 [nM]	SMILES
6 to 10	CCS(=O)(=O)c1cccc(-c2cc(C(=O)NCCOC)c(C)c3[nH]c4ncc(C)cc4c23)c1 [Compound 90, N-(2-(methoxy)ethyl)-5-(3-(ethylsulfonyl)phenyl)-3,8-dimethyl-9H-pyrido[2,3-b]indole-7-carboxamide]
≥ 11	CCS(=O)(=O)c1cccc(-c2cc(C(=O)NCCCN3CCN(C)CC3)c(C)c3[nH]c4ncc(C)cc4c23)c1 [Compound 95, 5-(3-(ethylsulfonyl)phenyl)-3,8-dimethyl-N-(3-(4-methylpiperazin-1-yl)propyl)-9H-pyrido[2,3-b]indole-7-carboxamide]
≥ 11	Cc1cnc2[nH]c3c(C)c(C(=O)NCCN(C)C)cc(-c4cccc(NC(=O)C5CC5)c4)c3c2c1 [Compound 112, 5-(3-(cyclopropanecarboxamido)phenyl)-N-(2-(dimethylamino)ethyl)-3,8-dimethyl-9H-pyrido[2,3-b]indole-7-carboxamide]
6 to 10	CCS(=O)(=O)c1cccc(-c2cc(C(=O)NCCN(C)C)c(C)c3[nH]c4ncc(C)cc4c23)c1 [Compound 113]
≥ 11	CCS(=O)(=O)c1cccc(-c2cc(C(=O)NCC3CCN(C)CC3)c(C)c3[nH]c4ncc(C)cc4c23)c1 [Compound 114, 5-(3-(ethylsulfonyl)phenyl)-3,8-dimethyl-N-((1-methylpiperidin-4-yl)methyl)-9H-pyrido[2,3-b]indole-7-carboxamide]
6 to 10	Cc1cnc2[nH]c3c(C)c(C(=O)NC4CCN(C)CC4)cc(-c4cccc(S(=O)(=O)C5CC5)c4)c3c2c1 [Compound 154, 5-(3-(cyclopropylsulfonyl)phenyl)-3,8-dimethyl-N-(1-methylpiperidin-4-yl)-9H-pyrido[2,3-b]indole-7-carboxamide]
≥ 11	COc1ccc(-c2cccc(NC(=O)C3CC3)c2)c2c1[nH]c1ncc(C)cc12 [Compound 163, N-(3-(8-methoxy-3-methyl-9H-pyrido[2,3-b]indol-5-yl)phenyl)cyclopropanecarboxamide]
6 to 10	CCS(=O)(=O)c1cccc(-c2ccc(OCC3CCN(C)CC3)c3[nH]c4ncc(C)cc4c23)c1 [Compound 177, 5-(3-(ethylsulfonyl)phenyl)-3-methyl-8-((1-methylpiperidin-4-yl)methoxy)-9H-pyrido[2,3-b]indole]
6 to 10	Cc1cnc2[nH]c3c(OCC4CCN(C)CC4)ccc(-c4cccc(NC(=O)C5CC5)c4)c3c2c1 [Compound 182, N-(3-(3-methyl-8-((1-methylpiperidin-4-yl)methoxy)-9H-pyrido[2,3-b]indol-5-yl)phenyl)cyclopropanecarboxamide]
≥ 11	Cc1cnc2[nH]c3c(OCCCN(C)C)ccc(-c4cccc(NC(=O)C5CC5)c4)c3c2c1 [Compound 195, N-(3-(8-(3-(dimethylamino)propoxy)-3-methyl-9H-pyrido[2,3-b]indol-5-yl)phenyl)cyclopropanecarboxamide]
6 to 10	CCS(=O)(=O)c1cccc(-c2ccc(OC[C@H](O)CN(C)C)c3[nH]c4ncc(C)cc4c23)c1 [Compound 232, (R)-1-(dimethylamino)-3-(5-(3-(ethylsulfonyl)phenyl)-3-methyl-9H-pyrido[2,3-b]indol-8-yloxy)propan-2-ol]
6 to 10	CCN(CCCOc1ccc(-c2cccc(S(=O)(=O)C3CC3)c2)c2c1[nH]c1ncc(C)cc12)CCOP(=O)(O)O [Compound 272, 2-((3-(5-(3-(cyclopropylsulfonyl)phenyl)-3-methyl-9H-pyrido[2,3-b]indol-8-yloxy)propyl)(ethyl)amino)ethyl dihydrogen phosphate]

Reference: patent US20100120717A1, “KINASE INHIBITORS” (priority 2006, published 2010)
